Where two headings read alike, the source gives them in different places. Marks after values point to notes of the source that are not given here.
How the values were obtained:
HIPK3 = target: T1, HIPK3 (Homo sapiens, UniProt Q9H422); assay: KINOMEscan Assay (DiscoverX); format: binding; conditions: read-out: % DMSO Ctrl
T1 construct: purchased DiscoverX

[1] = target: T2, Serotonin (5-Hydroxytryptamine) 5-HT2C (Homo sapiens, UniProt P28335); assay: Eurofins CEREP Screen; format: binding
T2 construct: purchased Eurofins CEREP

Adrenergic α2B = target: T3, Adrenergic α2B (Homo sapiens, UniProt P18089); assay: Eurofins CEREP Screen; format: binding
T3 construct: purchased Eurofins CEREP

468 kinases = assay: KINOMEscan profile, whole panel; format: binding; conditions: 10 μM
[2] = target: T4, Serotonin (5-Hydroxytryptamine) 5-HT7 (Homo sapiens, UniProt P34969); assay: Eurofins CEREP Screen; format: binding
T4 construct: Eurofins CEREP (contract screen)

Adrenergic α2C = target: T5, Adrenergic α2C (Homo sapiens, UniProt P18825); assay: Eurofins CEREP Screen; format: binding
T5 construct: purchased Eurofins CEREP

[3] = target: T6, Transporter, Norepinephrine (NET) (Homo sapiens, UniProt P23975); assay: Eurofins CEREP Screen; format: binding
T6 construct: Eurofins CEREP (contract screen)

[4] = target: T7, Serotonin (5-Hydroxytryptamine) 5-HT6 (Homo sapiens, UniProt P50406); assay: Eurofins CEREP Screen; format: binding
T7 construct: Eurofins CEREP (contract screen)

[5] = target: T8, Serotonin (5-Hydroxytryptamine) 5-HT2A (Homo sapiens, UniProt P28223); assay: Eurofins CEREP Screen; format: binding
T8 construct: purchased Eurofins CEREP

Adrenergic α2A = Adrenergic α2A (Homo sapiens, UniProt P08913); assay: biochemical
CSNK2A2 = target: T9, CSNK2A2 (Homo sapiens, UniProt P19784); assay: KINOMEscan Assay (DiscoverX); format: binding; conditions: read-out: % DMSO Ctrl
T9 construct: purchased DiscoverX

CLK1 = target: T10, CLK1 (Homo sapiens, UniProt P49759); assay: KINOMEscan Assay (DiscoverX); format: binding; conditions: read-out: % DMSO Ctrl
T10 construct: purchased DiscoverX

CDKL5 = target: T11, CDKL5 (Homo sapiens, UniProt O76039); assay: KINOMEscan Assay (DiscoverX); format: binding; conditions: read-out: % DMSO Ctrl
T11 construct: purchased DiscoverX

HIPK1 = target: T12, HIPK1 (Homo sapiens, UniProt Q86Z02); assay: KINOMEscan Assay (DiscoverX); format: binding; conditions: read-out: % DMSO Ctrl
T12 construct: purchased DiscoverX
T12 sequence (Q86Z02 whole entry): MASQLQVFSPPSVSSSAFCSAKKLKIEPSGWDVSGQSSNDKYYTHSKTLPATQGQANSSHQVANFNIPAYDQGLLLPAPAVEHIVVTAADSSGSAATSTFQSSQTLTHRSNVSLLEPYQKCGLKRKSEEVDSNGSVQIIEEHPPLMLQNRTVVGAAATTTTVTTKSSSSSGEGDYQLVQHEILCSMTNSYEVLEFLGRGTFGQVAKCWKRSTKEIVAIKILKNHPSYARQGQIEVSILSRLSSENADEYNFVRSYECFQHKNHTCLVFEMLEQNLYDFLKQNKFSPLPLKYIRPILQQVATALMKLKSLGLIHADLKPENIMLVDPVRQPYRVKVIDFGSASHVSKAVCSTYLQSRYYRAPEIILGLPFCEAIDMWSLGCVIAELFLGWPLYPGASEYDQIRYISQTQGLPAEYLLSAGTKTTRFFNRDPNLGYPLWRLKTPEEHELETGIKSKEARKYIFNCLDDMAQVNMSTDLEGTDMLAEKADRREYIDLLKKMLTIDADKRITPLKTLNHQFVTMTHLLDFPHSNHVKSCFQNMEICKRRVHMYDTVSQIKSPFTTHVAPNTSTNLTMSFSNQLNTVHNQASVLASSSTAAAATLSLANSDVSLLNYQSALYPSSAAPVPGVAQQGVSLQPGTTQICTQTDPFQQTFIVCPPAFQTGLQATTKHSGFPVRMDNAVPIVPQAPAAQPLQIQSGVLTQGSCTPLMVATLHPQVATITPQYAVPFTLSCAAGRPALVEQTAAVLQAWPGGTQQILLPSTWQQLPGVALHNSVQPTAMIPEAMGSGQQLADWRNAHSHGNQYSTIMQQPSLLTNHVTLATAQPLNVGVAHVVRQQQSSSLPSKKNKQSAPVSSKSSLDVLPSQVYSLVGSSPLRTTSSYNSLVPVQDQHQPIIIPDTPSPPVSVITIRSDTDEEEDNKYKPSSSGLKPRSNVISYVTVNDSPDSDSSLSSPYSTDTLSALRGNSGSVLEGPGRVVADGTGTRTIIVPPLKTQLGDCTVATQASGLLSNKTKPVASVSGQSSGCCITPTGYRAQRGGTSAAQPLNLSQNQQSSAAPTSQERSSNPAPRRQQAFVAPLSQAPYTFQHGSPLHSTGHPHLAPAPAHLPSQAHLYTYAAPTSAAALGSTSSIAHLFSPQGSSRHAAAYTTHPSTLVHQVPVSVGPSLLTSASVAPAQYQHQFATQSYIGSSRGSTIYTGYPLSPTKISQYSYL

CSNK1D = target: T13, CSNK1D (Homo sapiens, UniProt P48730); assay: KINOMEscan Assay (DiscoverX); format: binding; conditions: read-out: % DMSO Ctrl
T13 construct: purchased DiscoverX

KIT(L576P) = target: T14, KIT(L576P) (Homo sapiens, UniProt P10721, L576P); assay: KINOMEscan Assay (DiscoverX); format: binding; conditions: read-out: % DMSO Ctrl
T14 construct: purchased DiscoverX
T14 sequence (P10721 26-976 L576P): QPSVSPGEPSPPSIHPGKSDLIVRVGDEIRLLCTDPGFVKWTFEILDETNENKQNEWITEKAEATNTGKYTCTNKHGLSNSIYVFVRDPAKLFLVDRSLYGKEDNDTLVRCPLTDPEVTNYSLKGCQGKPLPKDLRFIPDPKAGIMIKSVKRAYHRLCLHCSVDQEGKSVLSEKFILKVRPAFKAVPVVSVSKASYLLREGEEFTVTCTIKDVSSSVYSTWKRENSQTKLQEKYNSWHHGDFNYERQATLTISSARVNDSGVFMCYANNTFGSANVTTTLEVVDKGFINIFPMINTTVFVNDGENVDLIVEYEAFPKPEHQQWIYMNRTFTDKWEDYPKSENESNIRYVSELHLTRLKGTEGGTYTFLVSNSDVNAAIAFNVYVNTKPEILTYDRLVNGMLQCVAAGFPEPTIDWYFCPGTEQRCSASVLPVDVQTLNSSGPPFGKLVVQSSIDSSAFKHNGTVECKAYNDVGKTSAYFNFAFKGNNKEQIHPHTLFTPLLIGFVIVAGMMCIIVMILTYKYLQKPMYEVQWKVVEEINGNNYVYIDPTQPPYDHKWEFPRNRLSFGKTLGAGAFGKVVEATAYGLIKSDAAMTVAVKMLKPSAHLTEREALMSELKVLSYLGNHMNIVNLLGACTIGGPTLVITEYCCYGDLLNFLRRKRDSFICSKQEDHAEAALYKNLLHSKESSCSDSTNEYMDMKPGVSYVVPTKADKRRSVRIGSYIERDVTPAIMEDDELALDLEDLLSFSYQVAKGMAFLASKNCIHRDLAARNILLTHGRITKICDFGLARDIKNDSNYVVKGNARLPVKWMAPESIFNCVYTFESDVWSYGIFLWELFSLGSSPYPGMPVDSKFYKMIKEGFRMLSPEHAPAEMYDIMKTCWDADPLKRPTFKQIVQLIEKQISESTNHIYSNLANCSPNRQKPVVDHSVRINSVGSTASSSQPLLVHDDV

ROCK2 = target: T15, ROCK2 (Homo sapiens, UniProt O75116); assay: KINOMEscan Assay (DiscoverX); format: binding; conditions: read-out: % DMSO Ctrl
T15 construct: purchased DiscoverX
T15 sequence (O75116 whole entry): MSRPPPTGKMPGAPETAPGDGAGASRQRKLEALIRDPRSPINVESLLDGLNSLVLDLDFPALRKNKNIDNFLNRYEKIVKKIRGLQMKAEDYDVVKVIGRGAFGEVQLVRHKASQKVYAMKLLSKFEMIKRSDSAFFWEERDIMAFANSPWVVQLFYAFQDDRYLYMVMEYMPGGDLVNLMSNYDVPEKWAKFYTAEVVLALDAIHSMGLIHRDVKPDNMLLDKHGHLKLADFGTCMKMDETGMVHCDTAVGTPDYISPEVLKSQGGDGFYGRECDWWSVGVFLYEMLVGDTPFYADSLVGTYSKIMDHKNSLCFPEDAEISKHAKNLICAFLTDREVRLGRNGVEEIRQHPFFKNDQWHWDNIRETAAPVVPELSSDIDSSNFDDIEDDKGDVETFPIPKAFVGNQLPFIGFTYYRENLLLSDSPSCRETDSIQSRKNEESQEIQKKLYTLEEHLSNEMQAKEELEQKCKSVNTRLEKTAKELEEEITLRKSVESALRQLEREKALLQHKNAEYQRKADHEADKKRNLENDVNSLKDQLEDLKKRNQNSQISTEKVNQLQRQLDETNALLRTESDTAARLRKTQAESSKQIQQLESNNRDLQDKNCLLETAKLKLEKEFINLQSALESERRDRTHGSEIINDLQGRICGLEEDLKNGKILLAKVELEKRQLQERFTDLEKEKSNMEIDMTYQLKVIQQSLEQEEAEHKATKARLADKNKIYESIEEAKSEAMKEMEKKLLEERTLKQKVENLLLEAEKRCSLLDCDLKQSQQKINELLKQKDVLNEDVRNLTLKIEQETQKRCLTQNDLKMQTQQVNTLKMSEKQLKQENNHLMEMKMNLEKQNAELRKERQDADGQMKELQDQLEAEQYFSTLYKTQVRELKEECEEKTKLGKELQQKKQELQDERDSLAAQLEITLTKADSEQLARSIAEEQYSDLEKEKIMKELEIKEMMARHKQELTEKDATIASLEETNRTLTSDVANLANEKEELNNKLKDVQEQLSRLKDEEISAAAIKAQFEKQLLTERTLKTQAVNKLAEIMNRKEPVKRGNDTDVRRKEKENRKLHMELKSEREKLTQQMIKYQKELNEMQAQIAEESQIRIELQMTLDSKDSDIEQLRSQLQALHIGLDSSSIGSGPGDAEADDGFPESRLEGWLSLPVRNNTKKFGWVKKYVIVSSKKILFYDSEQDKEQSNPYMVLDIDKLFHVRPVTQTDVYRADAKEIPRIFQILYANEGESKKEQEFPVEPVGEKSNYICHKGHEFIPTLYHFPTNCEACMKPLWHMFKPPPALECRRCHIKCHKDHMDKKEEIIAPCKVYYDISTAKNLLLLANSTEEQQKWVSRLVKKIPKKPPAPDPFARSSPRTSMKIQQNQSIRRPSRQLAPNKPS

CIT = target: T16, CIT (Homo sapiens, UniProt O14578); assay: KINOMEscan Assay (DiscoverX); format: binding; conditions: read-out: % DMSO Ctrl
T16 construct: purchased DiscoverX

DRAK2 = target: T17, DRAK2 (Homo sapiens, UniProt O94768); assay: KINOMEscan Assay (DiscoverX); format: binding; conditions: read-out: % DMSO Ctrl
T17 construct: purchased DiscoverX

CDK8 = target: T18, CDK8 (Homo sapiens, UniProt P49336); assay: KINOMEscan Assay (DiscoverX); format: binding; conditions: read-out: % DMSO Ctrl
T18 construct: purchased DiscoverX

CLK2 = target: T19, CLK2 (Homo sapiens, UniProt P49760); assay: KINOMEscan Assay (DiscoverX); format: binding; conditions: read-out: % DMSO Ctrl
T19 construct: purchased DiscoverX

CDK11 = target: T20, CDK11 (Homo sapiens, UniProt Q9BWU1); assay: KINOMEscan Assay (DiscoverX); format: binding; conditions: read-out: % DMSO Ctrl
T20 construct: purchased DiscoverX

TGFBR2 = target: T21, TGFBR2 (Homo sapiens, UniProt P37173); assay: KINOMEscan Assay (DiscoverX); format: binding; conditions: read-out: % DMSO Ctrl
T21 construct: purchased DiscoverX

DAPK3 = target: T22, DAPK3 (Homo sapiens, UniProt O43293); assay: KINOMEscan Assay (DiscoverX); format: binding; conditions: read-out: % DMSO Ctrl
T22 construct: purchased DiscoverX

DAPK1 = target: T23, DAPK1 (Homo sapiens, UniProt P53355); assay: KINOMEscan Assay (DiscoverX); format: binding; conditions: read-out: % DMSO Ctrl
T23 construct: purchased DiscoverX

KIT = target: T24, KIT (Homo sapiens, UniProt P10721); assay: KINOMEscan Assay (DiscoverX); format: binding; conditions: read-out: % DMSO Ctrl
T24 construct: purchased DiscoverX
T24 sequence (P10721 26-976): as the sequence (P10721 26-976 L576P) above, with P551L counted along it

DYRK1A [6] = target: T25, DYRK1A (Homo sapiens, UniProt Q13627); assay: FRET-based LanthaScreen Eu Kinase Binding Assay (Life Technologies)
DYRK1A [7] = target: T25, DYRK1A; assay: KINOMEscan Assay (DiscoverX); format: binding; set-up: purchased Life Technologies
VPS34 = target: T26, VPS34 (Homo sapiens, UniProt Q8NEB9); assay: KINOMEscan Assay (DiscoverX); format: binding; conditions: read-out: % DMSO Ctrl
T26 construct: purchased DiscoverX

DAPK2 = target: T27, DAPK2 (Homo sapiens, UniProt Q9UIK4); assay: KINOMEscan Assay (DiscoverX); format: binding; conditions: read-out: % DMSO Ctrl
T27 construct: purchased DiscoverX

CLK4 = target: T28, CLK4 (Homo sapiens, UniProt Q9HAZ1); assay: KINOMEscan Assay (DiscoverX); format: binding; conditions: read-out: % DMSO Ctrl
T28 construct: purchased DiscoverX

CSNK1E = target: T29, CSNK1E (Homo sapiens, UniProt P49674); assay: KINOMEscan Assay (DiscoverX); format: binding; conditions: read-out: % DMSO Ctrl
T29 construct: purchased DiscoverX

[8] = tested on: human β-cells (dispersed human islet cells); assay: Human β-cell proliferation assay (Ki67 and insulin staining); format: cell-based
[9] = tested on: NFAT2-GFP nuclear translocation in R7T1 rodent beta cells; assay: NFAT2 translocation assay; format: cell-based; conditions: 10 μM, 24 hours
Source text: NFAT2T Translocation Assay. […] At least 1000 cells were counted.

T1 sequence (Q9H422 whole entry): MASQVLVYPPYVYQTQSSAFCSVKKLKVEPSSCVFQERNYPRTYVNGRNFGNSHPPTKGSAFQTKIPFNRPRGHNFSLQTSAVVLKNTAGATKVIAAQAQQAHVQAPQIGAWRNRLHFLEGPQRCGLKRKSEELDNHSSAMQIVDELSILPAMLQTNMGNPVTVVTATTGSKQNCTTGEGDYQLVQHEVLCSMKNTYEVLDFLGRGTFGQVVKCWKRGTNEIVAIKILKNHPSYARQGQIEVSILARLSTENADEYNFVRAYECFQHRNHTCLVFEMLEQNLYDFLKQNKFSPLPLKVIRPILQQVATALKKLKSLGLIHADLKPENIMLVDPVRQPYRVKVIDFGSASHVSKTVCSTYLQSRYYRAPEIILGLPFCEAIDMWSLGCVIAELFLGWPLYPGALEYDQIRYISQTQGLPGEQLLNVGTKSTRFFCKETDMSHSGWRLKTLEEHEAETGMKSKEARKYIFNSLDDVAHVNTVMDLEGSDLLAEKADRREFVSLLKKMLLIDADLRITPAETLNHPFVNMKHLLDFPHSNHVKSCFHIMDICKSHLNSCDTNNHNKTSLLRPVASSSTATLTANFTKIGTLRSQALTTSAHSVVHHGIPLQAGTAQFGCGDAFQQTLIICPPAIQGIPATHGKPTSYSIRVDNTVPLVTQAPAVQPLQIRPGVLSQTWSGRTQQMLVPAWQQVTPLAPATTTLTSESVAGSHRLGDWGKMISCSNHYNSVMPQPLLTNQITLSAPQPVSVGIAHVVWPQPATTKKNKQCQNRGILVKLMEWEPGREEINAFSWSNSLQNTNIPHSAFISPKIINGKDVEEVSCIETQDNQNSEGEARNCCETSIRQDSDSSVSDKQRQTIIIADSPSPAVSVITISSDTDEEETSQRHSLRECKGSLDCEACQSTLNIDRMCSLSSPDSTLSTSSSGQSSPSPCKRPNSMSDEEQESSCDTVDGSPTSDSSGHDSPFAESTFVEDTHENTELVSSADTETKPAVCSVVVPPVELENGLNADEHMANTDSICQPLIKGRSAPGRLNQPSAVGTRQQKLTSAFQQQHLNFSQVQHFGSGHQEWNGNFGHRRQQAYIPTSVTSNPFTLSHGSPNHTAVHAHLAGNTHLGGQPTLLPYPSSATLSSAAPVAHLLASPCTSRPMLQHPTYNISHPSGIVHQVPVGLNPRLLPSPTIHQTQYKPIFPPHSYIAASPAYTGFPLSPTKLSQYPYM

SMILES | remaining binding at 10 µM (HIPK3) [%] | remaining binding at 10 µM (CSNK2A2) [%] | remaining binding at 10 µM (CLK1) [%] | remaining binding at 10 µM (CDKL5) [%] | remaining binding at 10 µM (HIPK1) [%] | remaining binding at 10 µM (CSNK1D) [%] | remaining binding at 10 µM (KIT(L576P)) [%] | remaining binding at 10 µM (ROCK2) [%] | remaining binding at 10 µM (CIT) [%] | remaining binding at 10 µM (DRAK2) [%] | remaining binding at 10 µM (CDK8) [%] | remaining binding at 10 µM (CLK2) [%] | remaining binding at 10 µM (CDK11) [%] | remaining binding at 10 µM (TGFBR2) [%] | remaining binding at 10 µM (DAPK3) [%] | remaining binding at 10 µM (DAPK1) [%] | remaining binding at 10 µM (KIT) [%] | remaining binding at 10 µM (DAPK2) [%] | remaining binding at 10 µM (CLK4) [%] | remaining binding at 10 µM (CSNK1E) [%] | other results
COc1ccc2c(c1)[nH]c1c(C)nccc12 [Harmine, reference compound] | 9.4 | – | – | – | – | – | – | – | – | – | – | – | – | – | – | – | – | – | – | – | inhibition at 10 µM [1]: 75%; inhibition at 10 µM (Adrenergic α2B): 32%; kinases inhibited (<20% activity remaining) in addition to DYRK1A (468 kinases): 16; inhibition at 10 µM [2]: 30%; inhibition at 10 µM (Adrenergic α2C): 45%; inhibition at 10 µM [3]: 86%; inhibition at 10 µM [4]: 37%; inhibition at 10 µM [5]: 23%; inhibition at 10 µM (Adrenergic α2A): 59%
C#CCn1c2cc(OC)ccc2c2ccnc(C)c21 [Compound 20-23a, 3-(7-Methoxy-1-methyl-β-carbolin-9-yl)-propan-1-yne] | – | 54 | 1.9 | 22 | 12 | 38 | 74 | 16 | 26 | 100 | 26 | 0.9 | 40 | 98 | 75 | 89 | 83 | 70 | 1.1 | 26 | remaining binding at 10 µM (HIPK3; HIPK3, 10 μM): 4.5%; IC50 (DYRK1A [6]): 8 nM; remaining binding at 10 µM (DYRK1A [7]; read-out: % DMSO Ctrl): 0%; remaining binding at 10 µM (VPS34; VPS34, 10 μM): 89%
COc1ccc2c3ccnc(C)c3n(CCCc3noc(N)n3)c2c1 [Compound 20-13, 3-(3-(7-Methoxy-1-methyl-β-carbolin-9-yl)propyl)-5-amino-1,2,4-oxadiazole] | 6.2 | 50 | 4.1 | 21 | 9.5 | 65 | 100 | 86 | 66 | 100 | 100 | 4.2 | 81 | 100 | 91 | 91 | 100 | 92 | 1.7 | 61 | % DMSO Ctrl (DYRK1A [7]; DYRK1A, 10 μM): 0 ^b % DMSO Ctrl; remaining binding at 10 µM (VPS34): 42%; human β-cell proliferation (in words) ([8]; 5 μM, versus harmine at 10 μM): induced Human 3-Cell proliferation to a greater extent that harmine
COc1ccc2c(c1)[nH]c1c(C)nc(CO)cc12 [Compound 2-8, (1-Methyl-7-methoxy-9H-pyrido[3,4-b]indol-3-yl)methanol] | – | – | – | – | – | – | – | – | – | – | – | – | – | – | – | – | – | – | – | – | remaining binding at 10 µM (KIT(L576P); KIT(L576P) mutant, 10 μM): 94%; remaining binding at 10 µM (ROCK2; ROCK2, 10 μM): 88%; remaining binding at 10 µM (KIT; KIT, 10 μM): 98%; NFAT2 translocation to nucleus [9]: drove NFAT2 translocation to nucleus; beta cell toxicity [8]: did not cause toxicity

From US12421232B2, “Kinase inhibitor compounds and compositions and methods of use” (ICAHN SCHOOL OF MEDICINE AT MOUNT SINAI, priority 2018, dated 2025)
